Assay [1] can be described thus: Cytotoxicity against human multidrug-resistant CEM/ADR5000 cells expressing p-glycoprotein at 400 uM by resazurin assay. The class given is functional, cell-based. A general note: Alamar Blue is a resazurin reagent that responds to reducing activity.
Assay [2] relates to CCRF-CEM. As to the kind of experiment: Cytotoxicity against human CCRF-CEM cells by resazurin assay. Format: functional, cell-based.
Assay [3] in a line: Cytotoxicity against human multidrug-resistant CEM/ADR5000 cells expressing p-glycoprotein by resazurin assay. The class given is functional, cell-based.
Assay [4] has as its system CCRF-CEM. Briefly: Resistance ratio of IC50 for human multidrug-resistant CEM/ADR5000 cells expressing p-glycoprotein to IC50 for human CCRF-CEM cells. Format: functional.
Assay [5] deals with Plasmodium falciparum. As to the kind of experiment: Antimalarial activity against Plasmodium falciparum 3D7 assessed as growth inhibition after 3 days by HRP2 based ELISA. Format: functional, organism-based. The settings on record: 3D7, 72 h. On the technique in general: ELISA stands for enzyme-linked immunosorbent assay.

Each structure is given as a SMILES string.

Turning to `C[C@@H]1CC[C@H]2[C@@H](C)C(CCCO)O[C@@H]3O[C@@]4(C)CC[C@@H]1[C@]32OO4` (some centres undefined), the IC50 result in assay [1] is “Not Active”; in assay [2], 174 µM.

Consider `COc1cc(CCCO)cc2cc(-c3ccc4c(c3)OCO4)oc12` [EGONOL], for which the IC50 in assay [3] came out at 9.78 µM; in assay [5], 25.4 µM; in assay [2], 5.75 µM. Moreover, in assay [4], the “Ratio IC50” value was found to be 1.7.

`C[C@H]1[C@H](OC(=O)CCC(=O)O)O[C@@H]2O[C@@]3(C)CC[C@H]4[C@H](C)CC[C@@H]1[C@@]24OO3` [ARTESUNATE]: the IC50 in assay [3] is 1.2 µM; in assay [5] it was 0.00082 µM. In addition, the “Ratio IC50” value in assay [4] came out at 0.67.

In the case of `C[C@@H]1CC[C@H]2[C@@H](C)C(=O)O[C@@H]3O[C@@]4(C)CC[C@@H]1[C@]32OO4` [ARTEMISININ], the “Ratio IC50” value in assay [4] is reported as 0.73.

Regarding `COc1cccc2c1C(=O)c1c(O)c3c(c(O)c1C2=O)C[C@@](O)(C(=O)CO)C[C@@H]3O[C@H]1C[C@H](N)[C@H](O)[C@H](C)O1` [DOXORUBICIN], the figures for the IC50 in assay [3] and in assay [2] were 23.3 µM and 0.009 µM, respectively. Also, the “Ratio IC50” value in assay [4] is on record as 2585.

With `C[C@H]1[C@H](OC(=O)CCC(=O)NCC(O)CNC(=O)CCC(=O)O[C@@H]2O[C@@H]3O[C@@]4(C)CC[C@H]5[C@H](C)CC[C@@H]([C@H]2C)[C@@]35OO4)O[C@@H]2O[C@@]3(C)CC[C@H]4[C@H](C)CC[C@@H]1[C@@]24OO3` (some centres undefined), the IC50 in assay [5] was determined as 0.00032 µM.

On to `COc1cc(CCCOC(=O)CCC(=O)O[C@@H]2O[C@@H]3O[C@@]4(C)CC[C@H]5[C@H](C)CC[C@@H]([C@H]2C)[C@@]35OO4)cc2cc(-c3ccc4c(c3)OCO4)oc12`, for which the results for the IC50 in assay [3], in assay [5] and in assay [2] were 1.12 µM, 0.0023 µM and 0.18 µM, respectively. Further, the “Ratio IC50” value in assay [4] worked out at 6.12.

Turning to `C[C@H]1[C@H](OC(=O)CCC(=O)NCCCCCCCCNC(=O)CCC(=O)O[C@@H]2O[C@@H]3O[C@@]4(C)CC[C@H]5[C@H](C)CC[C@@H]([C@H]2C)[C@@]35OO4)O[C@@H]2O[C@@]3(C)CC[C@H]4[C@H](C)CC[C@@H]1[C@@]24OO3`, the IC50 in assay [5] came out at 0.0003 µM.

By IC50 is commonly meant the midpoint of a concentration-inhibition curve.

Source of the values: ChEMBL document CHEMBL3124935, “Synthesis and study of cytotoxic activity of 1,2,4-trioxane- and egonol-derived hybrid molecules against Plasmodium falciparum and multidrug-resistant human leukemia cells” (Eur J Med Chem, 2014).
